Source: patent US7709443B2, “Cyclic peptide antitumor agents” (Northwestern University, priority 2003, dated 2010)
Values after ≈ are worked out from the molar mass of the structure shown. Where two headings read alike, the source gives them in different places. Square brackets hold non-standard residues; d marks the D form. Peptide text beside a SMILES is read from it. NMePhe(4-Br) = CN[C@@H](Cc1ccc(Br)cc1)C(=O)O; Phe(4-Br) = N[C@@H](Cc1ccc(Br)cc1)C(=O)O; NMeF = CN[C@@H](Cc1ccccc1)C(=O)O; Hica(2S) = CC(C)C[C@H](O)C(=O)O; NMeL = CN[C@@H](CC(C)C)C(=O)O; Aib = CC(C)(N)C(=O)O

Assays:
[1] = test system: AsPC-1 cells; assay: Cell proliferation assay (Guava ViaCount cell number), AsPC-1; assay type: cell-based, human; conditions: AsPC-1, 10 μM, 72 hours, vs vehicle (DMSO)
Method: (§1) Given the results of the preceding example, several compounds of this invention were tested against human pancreatic cancer cell lines. Two cancer cell lines were selected: S2-013 (well-differentiated) and AsPC-1 (poorly differentiated). These cell lines were purchased from American Type Culture Collection (Manassas, Va.). Both cell lines were grown in DMEM and plated as monolayers in the medium supplemented with 10% fetal bovine serum in a humidified atmosphere of […] and 5% CO2 at 37° C. The cells were regularly seeded into 75 cm^2 flasks with media changes every second or third day. For experiments, cells were grown to 70% confluence, digested with trypsin-EDTA, and plated in either 6-, 24-, or 48-well plates.
(§2) Cell Proliferation Assay. Cells were regularly seeded into three 6-well plates and incubated at 37° C. for 24 hours. Cells were then cultured in serum-free medium for another 24 hours and treated in fresh serum-free medium with or without 10 μM of cyclic peptide 1k for 24, 48, and 72 hours. At the end of each time period, the cells were trypsinized to produce a single cell suspension, and the cell number in each well was determined using Guava Technologies=ViaCount Assay (Guava Technologies Inc, Hayward, Calif.).
(§3) Statistical Analysis. Data were analyzed by ANOVA with Dunnett's or Bonferoni's corrections for multiple comparisons, as appropriate. This analysis was performed with the Prism software package (GraphPad, San Diego, Calif.). Data were expressed as mean±SEM.

[2] = test system: S2-013 cell line; assay: Cell proliferation assay (Guava ViaCount cell number), S2-013; assay type: cell-based, human; conditions: S2-013, 10 μM, 72 hours, vs vehicle (DMSO)
Method: as §1, §2, §3

[3] = test system: PC-3 (Prostate) human cancer cell line; conditions: three days
Method: (§5) Cells were plated at 5,000 cells per well in 24-well plates, treated for three days, then counted. Cell number was normalized to the number of cells in untreated control (DMSO) cells, also after three days.

[4] = test system: MDA-MB231 (Breast) human cancer cell line; conditions: three days
Method: as §5

[5] = test system: WM115 (Melanoma) human cancer cell line; conditions: three days
Method: as §5

[6] = test system: HCT-116 (human colon carcinoma); assay: cells; conditions: HCT-116 bioassay, Table 1
Description: The HCT-116 human colon adenocarcinoma screen is a tissue culture first line assay to detect inherent cytotoxicity against malignant cancer cells. This strain is considered to be an “indicator strain” by many for the selection of inhibitors that target solid tumors. The assay is a calorimetric endpoint assay which can be produced in 96-well format trays. Data are acquired by plate reader and dose response curves are produced by computer analysis. […] This assay is run routinely as described below and would be understood in the art.
1. Media (1000 mL McCoy's 5A Medium, 114 mL Fetal Bovine Serum, 25 mL Hepes buffer solution (IM), 12.5 mL Penicillin-Streptomycin solution)
2. Cell line (HCT-116, human colon cancer cell line)
3. Indicator (MTS and PMS in DPBS)
5. Standard anticancer drug (etoposide (VP-16); stock is 4 mg/mL in DMSO
6. DPBS (without CaCl2 and MgCl2)
1. Remove medium from the cells and rinse with 10 mL sterile DPBS.
3. Allow to stand in hood for 1 minute.
4. Remove trypsin with sterile pipette.
5. Allow flask to stand in hood for 2-5 minutes.
6. Add 10 mL of media to flask and pipette up and down to gently break up cell clumps.
7. Count the number of cells using a hemacytometer.
8. Determine # of plates needed, and total volume of cell suspension (16 or 18 mL per plate).
9. Dilute cells to a final concentration of 2.5×10^4 cells/mL in a sterile flask.
10. Pour cell suspension into a sterile trough.
For Serial Dilution Plates
1. Add 175 μL to each well in the first row of a 96 well plate.
2. Add 150 μL to the rest of the wells in A1-A10 & A12.
3. In row 11 add 150 μL cell suspension to the first 6 wells and only media to the last two.
For Single Concentration Plates
1. Add 150 μL of sterile media to G11 & H11.
2. Add 150 μL of cell suspension to all other wells.
3. Add 25 μL more to well H1.
Incubate plates overnight at 37° C. & 5% CO2
1. Add 25 μL of test compounds @ 10 mg/mL to A1-A10, 25 μL of DMSO to A11 & 25 μL of etoposide (4 mg/mL) to A12.
2. Using a twelve channel pipette, mix well then remove 50 μL from the first row and transfer to the next row, repeat down the plate until row F, then remove tip # 11 and continue down plate discarding the last 50 μL.
3. Incubate plates for 72 h.
1. Add 20 μL of MTS/PMS solution to each well.
3. Read plates @490 nm on plate reader.

[7] = test system: National Cancer Institute's 60 cell-line panel; conditions: mean over panel; cited from earlier work
[8] = test system: topoisomerase I; conditions: mechanism study in molluscum contagiosum virus; cited from earlier work
[9] = test system: HCT-116 (human colon carcinoma); conditions: as found for the natural product; cited from earlier work
[10] = test system: PC-3 cells; assay: Annexin V binding, induction of apoptosis; assay type: cell-based, human; conditions: after 72 hours
Description: The ability of the compounds in this invention to induce apoptosis was also studied, based on a methodology previously reported in the literature. (See, Soff et al. Cancer Res., 63:4275-4289, 2003.) As understood by those skilled in the art, the ability of Annexin V to bind two cells is related to altered phospholipids on a cell surface, induced by apoptosis. As such, increased Annexin V binding indicates induction of apoptosis.

[11] = test system: Caspase-3 activity in PC-3 cells; assay: Caspase-3 activity, fluorometric assay; assay type: cell-based, human; conditions: relative to DMSO and staurosporin controls
Method: Caspase-3 is a mediator of apoptosis, and induction of Caspase-3 activity indicates induction of apoptosis. Activity of Caspase-3 was measured by a fluorometric assay, as described in the literature, referenced above.

[12] = test system: AsPC-1 human pancreatic cancer cells; assay: DNA synthesis by [methyl-3H] thymidine incorporation, AsPC-1; assay type: cell-based; conditions: AsPC-1, 24 hours, FIG. 6
Method: as §1
DNA Synthesis by [methyl-^3H] Thymidine Incorporation. Cells were plated in 24-well plates at a concentration of 50,000 cells/well. […] Radioactivity, indicating incorporation of ^3H-methyl thymidine into DNA, was measured by adding scintillation cocktail and counting on a scintillation counter (LKB RackBeta; Wallac, Turku, Finland).
Statistical Analysis. Data were analyzed by ANOVA with Dunnett's or Bonferoni's corrections for multiple comparisons, as appropriate. […] Data were expressed as mean±SEM.

[13] = test system: AsPC-1 cells; assay: Morphological changes using light microscopy, AsPC-1; assay type: cell-based, human; conditions: AsPC-1, 24 hours, 0.1-100 μM tested
Method: as §1
Morphological Changes Using Light Microscopy. AsPC-1 and S2-013 cells plated in 24-well plates were treated with varying concentrations (0.1-100 μM) of cyclic peptide 1k for 24 hours. Cells were then viewed using light microscopy, and digital images were taken with a Kodak DC120 zoom digital camera (Eastman Kodak Co., Rochester, N.Y.).

[14] = test system: AsPC-1 human pancreatic cancer cells; assay: Cell cycle analysis by flow cytometry, AsPC-1; assay type: cell-based; conditions: AsPC-1, 10 μM, 24 hours
Method: (§4) Cell Cycle Analysis by Flow Cytometry. AsPC-1 and S2013 human pancreatic cancer cells were cultured in T75 flasks with media containing 10% FBS. After reaching 50-60% confluence, the cells were serum-starved for 24 hours, and then treated with 10 μM of cyclic peptide 1k for 24 hours. At the end of the treatment, the cells were harvested with trypsin-EDTA solution to produce single cell suspension. The cells were then centrifuged at 1000×g for 10 minutes. The pellets were washed twice with ice-cold phosphate buffer saline (PBS), and re-suspended in 0.5 ml PBS. 5 ml of ice-cold 70% ethanol was added to each cell suspension and incubated for 12 hours at 4° C. The cells fixed in ethanol were centrifuged at 1000×g for 10 minutes and the subsequent pellets were washed with ice-cold PBS twice. The final cell pellets were reconstituted in the 1 ml Telford reagent and horizontally shaken for 1 hour in the dark at room temperature. The red fluorescence of the single events was recorded using a laser beam at 488 nm excitation 8 and 610 nm as emission 8 to measure the DNA index. Experiments were repeated three times.

[15] = test system: S2013 human pancreatic cancer cells; assay: Cell cycle analysis by flow cytometry, S2013; assay type: cell-based; conditions: S2013, 10 μM, 24 hours
Method: as §4

In the case of `CC(C)C[C@@H]1NC(=O)[C@H](Cc2ccccc2)NC(=O)[C@H](Cc2ccccc2)N(C)C(=O)[C@H](Cc2ccccc2)NC(=O)C(C)(C)NC(=O)[C@H](CC(C)C)N(C)C(=O)[C@@H]2CCCN2C1=O` [Scytalidamide A, reference compound] (cyclo(F[NMeF]FLP[NMeL][Aib])), the “change in number of cells” value [1] is reported as “significant (p<0.05) decrease”, the “change in number of cells” value [2] is reported as “exception” and the “Fold Induction Over DMSO control” value ([3]; PC-3, 1 μM) is reported as 0.63. The “Fold Induction Over DMSO control” value ([3]; PC-3, 10 μM) was 0.15, the “Fold Induction Over DMSO control” value ([4]; MDA-MB231, 1 μM) was 2.75 and the “Fold Induction Over DMSO control” value ([4]; MDA-MB231, 10 μM) was 0.11. For the same molecule, the “Fold Induction Over DMSO control” value ([5]; WM115, 1 μM) was 1.01 and the “Fold Induction Over DMSO control” value ([5]; WM115, 10 μM) was 0.07.
With `CC(C)C[C@@H]1NC(=O)[C@H](C(C)C)NC(=O)[C@H](CC(C)C)OC(=O)[C@H](CC(C)C)NC(=O)[C@H](Cc2ccccc2)NC1=O` [Sansalvamide A, reference compound] (cyclo(FL[Hica(2S)]VL)) the IC50 [6] was 9.8 µg/mL (≈ 16.7 µM), the “Fold Induction Over DMSO control” value ([3]; PC-3, 1 μM) was 0.95 and the “Fold Induction Over DMSO control” value ([3]; PC-3, 10 μM) was 0.22. The “Fold Induction Over DMSO control” value ([4]; MDA-MB231, 1 μM) was 0.90, the “Fold Induction Over DMSO control” value ([4]; MDA-MB231, 10 μM) was 0.09 and the “Fold Induction Over DMSO control” value ([5]; WM115, 1 μM) was 0.98. The “Fold Induction Over DMSO control” value ([5]; WM115, 10 μM) was 0.02, the “mean IC50 against NCI 60 cell-line panel” value [7] was 27.4 µg/mL and the “inhibition of topoisomerase I” value [8] was “inhibitor of topoisomerase I”. For the same molecule, the “in vitro value toward HCT-116 colon carcinoma” value [9] was 9.8 µg/mL.
For `CC(C)C[C@@H]1NC(=O)[C@H](Cc2ccc(Br)cc2)NC(=O)[C@H](CC(C)C)N(C)C(=O)[C@H](C(C)C)NC(=O)[C@H](CC(C)C)NC1=O` [Compound 1i] (cyclo([Phe(4-Br)]LLV[NMeL])), the “change in number of cells” value [1] was “significant (p<0.05) decrease”, the “change in number of cells” value [2] was “significant (p<0.05) decrease” and the “induction of apoptosis (Annexin V binding)” value [10] was “induction of apoptosis was observed”. For the same molecule, the Caspase-3 activity [11] was “induced”, the “Fold Induction Over DMSO control” value ([3]; PC-3, 1 μM) was 0.85 and the “Fold Induction Over DMSO control” value ([4]; MDA-MB231, 1 μM) was 0.96. The “Fold Induction Over DMSO control” value ([5]; WM115, 1 μM) was 1.44.
For `CC(C)C[C@@H]1NC(=O)[C@H](C(C)C)NC(=O)[C@H](CC(C)C)NC(=O)[C@H](CC(C)C)N(C)C(=O)[C@H](Cc2ccc(Br)cc2)NC1=O` [Compound 1c] (cyclo([Phe(4-Br)][NMeL]LVL)), the Caspase-3 activity [11] was “induced”, the “Fold Induction Over DMSO control” value ([3]; PC-3, 1 μM) was 0.75 and the “Fold Induction Over DMSO control” value ([4]; MDA-MB231, 1 μM) was 0.56. The “Fold Induction Over DMSO control” value ([5]; WM115, 1 μM) was 1.10.
With `CC(C)C[C@@H]1NC(=O)[C@H](CC(C)C)NC(=O)[C@H](Cc2ccc(Br)cc2)N(C)C(=O)[C@H](CC(C)C)NC(=O)[C@H](C(C)C)NC1=O` [Compound 1k] (cyclo([NMePhe(4-Br)]LLVL)) the “concentration-dependent effect on thymidine incorporation” value [12] was “concentration-dependent inhibition”, the “compound concentration giving obvious morphological changes” value [13] was no less than 10 μM and the “change in number of cells” value [1] was “significant (p<0.05) decrease”. The “change in number of cells” value [2] was “significant (p<0.05) decrease”, the S phase fraction [14] was “marked decrease” and the cell cycle effect [14] was “G0/G1 phase cell cycle arrest”. The “subG1 fraction of apoptotic cells” value [14] was “increase”, the S phase fraction [15] was “marked decrease” and the cell cycle effect [15] was “G0/G1 phase cell cycle arrest”. The “subG1 fraction of apoptotic cells” value [15] was “increase”, the “Fold Induction Over DMSO control” value ([3]; PC-3, 1 μM) was 0.95 and the “Fold Induction Over DMSO control” value ([3]; PC-3, 10 μM) was 0.66. For the same molecule, the “Fold Induction Over DMSO control” value ([4]; MDA-MB231, 1 μM) was 3.17, the “Fold Induction Over DMSO control” value ([4]; MDA-MB231, 10 μM) was 0.41 and the “Fold Induction Over DMSO control” value ([5]; WM115, 1 μM) was 1.05. The “Fold Induction Over DMSO control” value ([5]; WM115, 10 μM) was 0.13.
